# Laboratory results from patent US20250186404A1, “METHODS OF USING A (THIAZOLYL)BENZENESULFONAMIDE DERIVATIVE” (Cyteir Therapeutics, Inc., priority 2023, published 2025).
# Read-outs that look alike come from different tables or passages of the source.
# Tests used:
# [1] = molecular target: T1, human MCT1 (Homo sapiens, UniProt P53985); assay: MCT1 Transport Inhibition Assay (TPGA uptake, LC-MS/MS); type: cell-based
# T1 construct: host or cells: MDCK-II (canine) cells, transient co-transfection
# T1 sequence (P53985 1-500): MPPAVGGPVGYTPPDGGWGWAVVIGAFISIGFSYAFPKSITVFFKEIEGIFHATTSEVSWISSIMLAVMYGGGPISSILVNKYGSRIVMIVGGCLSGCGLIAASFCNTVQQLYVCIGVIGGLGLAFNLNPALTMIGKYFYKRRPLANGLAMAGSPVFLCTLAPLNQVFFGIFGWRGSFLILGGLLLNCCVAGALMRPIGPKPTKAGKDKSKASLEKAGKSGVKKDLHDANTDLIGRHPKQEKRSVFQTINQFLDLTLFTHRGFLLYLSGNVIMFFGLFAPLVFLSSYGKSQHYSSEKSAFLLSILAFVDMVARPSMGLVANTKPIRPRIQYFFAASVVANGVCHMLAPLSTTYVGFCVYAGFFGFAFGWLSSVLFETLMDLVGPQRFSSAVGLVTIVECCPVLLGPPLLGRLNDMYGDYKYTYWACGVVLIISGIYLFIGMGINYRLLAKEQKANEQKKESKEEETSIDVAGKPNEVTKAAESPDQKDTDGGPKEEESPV
# T1 sequence (P35613 140-385 partner limits assumed): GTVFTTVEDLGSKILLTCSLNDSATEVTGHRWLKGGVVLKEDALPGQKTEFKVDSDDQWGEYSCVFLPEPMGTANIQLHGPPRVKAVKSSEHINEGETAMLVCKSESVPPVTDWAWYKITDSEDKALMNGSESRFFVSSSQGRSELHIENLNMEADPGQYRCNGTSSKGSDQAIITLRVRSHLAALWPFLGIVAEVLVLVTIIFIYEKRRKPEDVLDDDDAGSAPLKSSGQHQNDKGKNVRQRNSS
# Description: Inhibition of MCT1 transport after treatment with compounds of the present invention was measured in MDCK-II cells that overexpress human MCT1 by quantifying the transport of 2-Thiophene-glycoxylic acid (TPGA) into cells using LC-MS/MS.
# MDCK-II cells are seeded at 60,000 cells per well in growth medium (low-glucose DMEM+10% FBS) in 96-well trans-well membrane plates, and incubated overnight (37° C., 5% CO2). Cells were co-transfected with mammalian expression constructs coding for MCT1 and CD147 at a 2:1 ratio or an empty vector control (GFP) and then incubated for 48 h (37° C., 5% CO2). Cells were washed 3 times with HBSS and cells were preincubated with inhibitors or vehicle control at room temperature in HBSS for 30 min with orbital shaking (60 rpm). HBSS was aspirated from the wells and replaced with HBSS with 25 mM Bis-Tris pH5.5+inhibitor or vehicle control+500 μM TPGA and incubated for 1 min at room temperature with orbital shaking (60 rpm). Both the apical and basolateral side of the trans-well insert were washed 4 times with ice-cold PBS. Cells were lysed with 60 μL of cell extraction solution, and the amount of TPGA in each well was quantified in triplicate by LC-MS/MS. The MCT1-mediated uptake rate was calculated using the following equation: […]
# Percent inhibition for each concentration of inhibitor tested was calculated using the following equation: […]
# Curves were fit to the calculated percent inhibition for each inhibitor, and the IC50 representing the concentration of inhibitor at which MCT1 is inhibited by 50% was calculated from this curve.
# Canine MDCKII cells expressing human MCT1 were treated with a titration of Compound 67A, and import of the MCT1 substrate, 2-TPGA was measured by LC-MS (FIG. 1).
# [2] = molecular target: T2, Human MCT3 (Homo sapiens, UniProt O95907); assay: Inhibition of 3BP import (rescue of viability) in MCT3-overexpressing INS-1 cells; type: cell-based; conditions: INS-1 cells over-expressing human MCT3, rescue from LC100 3BP
# T2 construct: expressed in transfected cells
# T2 sequence (O95907 1-504): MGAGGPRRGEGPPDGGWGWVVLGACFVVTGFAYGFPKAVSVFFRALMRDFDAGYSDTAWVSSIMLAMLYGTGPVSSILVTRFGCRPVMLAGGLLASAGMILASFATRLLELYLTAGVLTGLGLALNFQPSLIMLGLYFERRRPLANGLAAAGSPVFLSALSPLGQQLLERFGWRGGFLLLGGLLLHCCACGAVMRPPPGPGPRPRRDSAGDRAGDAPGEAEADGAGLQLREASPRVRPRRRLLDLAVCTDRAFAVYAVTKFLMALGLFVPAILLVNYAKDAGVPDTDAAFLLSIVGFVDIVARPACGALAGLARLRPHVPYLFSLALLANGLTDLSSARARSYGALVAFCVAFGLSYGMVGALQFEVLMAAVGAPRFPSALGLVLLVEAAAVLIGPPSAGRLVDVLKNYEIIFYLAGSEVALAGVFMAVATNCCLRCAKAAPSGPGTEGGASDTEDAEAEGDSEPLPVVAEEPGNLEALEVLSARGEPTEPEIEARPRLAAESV
# T2 sequence (P26453 23-388 partner): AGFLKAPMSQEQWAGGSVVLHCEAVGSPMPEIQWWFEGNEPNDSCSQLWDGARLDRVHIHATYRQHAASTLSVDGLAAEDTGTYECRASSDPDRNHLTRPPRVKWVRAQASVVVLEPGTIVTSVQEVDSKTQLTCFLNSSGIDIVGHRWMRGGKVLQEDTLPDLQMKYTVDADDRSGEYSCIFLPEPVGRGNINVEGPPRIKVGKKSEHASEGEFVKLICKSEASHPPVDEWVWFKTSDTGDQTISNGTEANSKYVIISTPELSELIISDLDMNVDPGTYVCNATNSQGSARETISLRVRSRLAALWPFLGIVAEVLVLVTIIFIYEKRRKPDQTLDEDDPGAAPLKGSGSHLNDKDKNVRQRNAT
# Description: Human MCT1-4 were stably expressed in INS-1 rat pancreatic islet B-cells, which are deficient in endogenous MCT expression. 3-Bromopyruvate (3BP), a highly reactive and cytotoxic monocarboxylate, can enter the INS-1 cells via the overexpressed MCT isoform, resulting in rapid cell death. However, prevention of 3BP transport into the cell by an MCT inhibitor can prevent 3BP-mediated cell death (FIG. 16).
# INS-1 cells over-expressing an MCT paralog were treated with a titration of 3BP to determine the lowest concentration that results in 100% cell killing (LC100). The INS-1 cells were then pre-treated with a titration of Compound 67A before exposure to the LC100 concentration of 3BP specific for that MCT-over-expressing cell line, and rescue of cell viability was measured (FIG. 17).
# [3] = MDCK-II cells overexpressing human MCT1, TPGA transport, read-out: BioIVT MCT1 Transporter IC50
"IC50 ([1]; Canine MDCKII cells expressing human MCT1, LC-MS, read-out: inhibits 2-TPGA import, IC50)",Compound,"IC50 [1, 3]",IC50 [2]
–,O=C(Nc1ccccc1C(=O)O)c1cc(S(=O)(=O)c2ccccc2)ccc1Cl [BAY8002],0.05 to 0.15 µM,> 33 µM
0.134 µM,CC(C)OC(=O)Nc1ccc(-c2cnc([C@H]3CC[C@H](NC(=O)OC(C)C)CC3)s2)c(S(=O)(=O)NC(C)(C)C)c1 [Compound 67A],0.05 to 0.15 µM,10 to 33 µM
–,AZD3965,0.15 to 1 µM,> 33 µM
